The values below come from patent publication US20230044787A1, “TRICYCLE DIHYDROIMIDAZOPYRIMIDONE DERIVATIVE, PREPARATION METHOD THEREOF, PHARMACEUTICAL COMPOSITION AND USE THEREOF” (priority 2019, published 2023).

Each structure is given as a SMILES string. pIC50: −log10 of the molar value.

Usually pIC50 stands for −log10 of the IC50, conventionally taken in molar units.

The target of the first assay is T1, Lp-PLA2 (Homo sapiens, UniProt Q13093).
T1 construct: aliquoted and thawed 40 μL of pooled human plasma was previously added; from tissue; host or cells: pooled human plasma
T1 sequence (Q13093 22-441): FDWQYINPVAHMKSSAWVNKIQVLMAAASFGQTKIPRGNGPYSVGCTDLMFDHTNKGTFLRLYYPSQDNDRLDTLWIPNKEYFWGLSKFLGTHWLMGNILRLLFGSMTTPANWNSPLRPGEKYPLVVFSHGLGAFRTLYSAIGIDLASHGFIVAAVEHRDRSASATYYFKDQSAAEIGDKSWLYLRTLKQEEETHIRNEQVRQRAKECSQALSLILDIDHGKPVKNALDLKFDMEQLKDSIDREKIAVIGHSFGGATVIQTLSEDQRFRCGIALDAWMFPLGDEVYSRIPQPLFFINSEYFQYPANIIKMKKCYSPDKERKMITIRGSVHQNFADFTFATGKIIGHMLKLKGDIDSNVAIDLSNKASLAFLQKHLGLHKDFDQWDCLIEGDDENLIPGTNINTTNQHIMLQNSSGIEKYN
Nature of the assay: Lipoprotein-associated phospholipase A2 (Lp-PLA2) human plasma assay (Thio-PAF assay). Type of assay: biochemical. The settings on record: Comparison of activity data (I); pooled human plasma, 2-thio-PAF substrate, 30-min pre-incubation. On the procedure:
Lipoprotein-Associated Phospholipase A2 (Lp-PLA2) Human Plasma Assay
The amount of sulfhydryl groups is continuously determined by the reaction with CPM (7-diethylamino-3-(4′-maleimidophenyl)-4-methylcoumarin), and the CPM is a maleimide of which fluorescence increases after Michael addition of sulfhydryl group. This assay can detect Lp-PLA2 activity in human plasma, as determined by specific inhibition of Lp-PLA2 inhibitors.
Thio-PAF assay was performed as quenched 75 μL assay. Compound source plate was prepared for each compound by preparing 1:3 (by volume) serial dilutions in pure DMSO in a 96-well microplate. The compound on the source plate was diluted 20-fold by transferring 3 μL of the compound from the compound source plate into a 96-well microplate pre-added with 57 μL of assay buffer by Rainin multichannel pipette. The assay buffer described above consisted of 50 mM HEPES, pH 7.4, 150 mM NaCl, 1 mM CHAPS. 1 μL of the 20-fold diluted compound was transferred by Rainin multichannel pipette into a 96-well Greiner 655076 (black) microplate to which aliquoted and thawed 40 μL of pooled human plasma was previously added. The plate was shaken for 20 seconds on a microplate shaker to mix well. After a 30-min pre-incubation at room temperature, 10 μL of substrate solution was added to the 96-well Greiner 655076 (black) microplate by Rainin multichannel pipette, in which the substrate solution contained 2.5 mM 2-thio-PAF [from ethanol stock], 32 μM CPM [from DMSO stock], and 3.2 mM NEM (N-ethylmaleimide) [freshly prepared in DMSO per experiment] in assay buffer consisting of 50 mM HEPES, pH 7.4; 150 mM NaCl; 1 mM CHAPS. After 2 min, the reaction was quenched with […] of 5% trifluoroacetic acid (TFA) in water. The plate was centrifuged at 2000 rpm for 1 minute. The plate was read at ex:380/em:485 using a Biotek Synergy H1 (H1MF) microplate reader. IC50 data, curves and QC analysis were performed using GraphPad Prism 6.0 and Excel.
Consider `O=c1nc(OCc2cc(F)c(F)c(F)c2)cc2n1CC1COCCN21` (racemic) [Corresponding racemate of Example 123 in WO2016011930A1, reference compound], for which the negative-log IC50 (pIC50) was 7.20.

The assay is the same for the next values; noted with them: Lp-PLA2 human plasma assay (Thio-PAF), pooled human plasma, 30-min pre-incubation at room temperature.
In the case of `O=c1nc(OCc2cc(F)c(Oc3ccnc(C(F)(F)F)c3)c(F)c2)cc2n1C[C@]13CO[C@H](CN21)C3` [Example 1], the pIC50 was 8.36. Still for that read-out and setting: in the case of `N#Cc1cc(COc2cc3n(c(=O)n2)CC24CCC(CC2)N34)ccc1Oc1cccc(C(F)(F)F)c1` [Example 2, 5-(((1-Oxo-7,8-dihydro-1H,6H,9H-6,8a-ethanopyrrolo[1′,2′:3,4]imidazo[1,2-c]pyrimidin-3-yl)oxy)methyl)-2-(3-(trifluoromethyl)phenoxy)benzonitrile] it was 8.59; in that of `O=c1nc(OCc2cc(F)c(Oc3ccc(Cl)c(C(F)(F)F)c3)c(F)c2)cc2n1C[C@]13CO[C@H](CN21)C3` [Example 4, (3S,11aR)-7-((4-(4-chloro-3-(trifluoromethyl)phenoxy)-3,5-difluorobenzyl)oxy)-3,4-dihydro-1H,9H,11H-3,11a-methanopyrimido[6′-,1′:2,3] imidazo[5,1-c][1,4]oxazin-9-one], 8.60; in that of `O=c1nc(OCc2cc(F)c(Oc3ccnc(OC(F)(F)F)c3)c(F)c2)cc2n1C[C@]13CO[C@H](CN21)C3` [Example 5, (3S,11aR)-7-((3,5-difluoro-4-((2-(trifluoromethoxy)pyridin-4-yl)oxy)benzyl)oxy)-3,4-dihydro-1H,9H,11H-3,11a-methanopyrimido[6′,1′:2,3] imidazo[5,1-c][1,4]oxazin-9-one], 8.38. Same read-out and setting: the figure for `O=c1nc(OCc2cc(F)c(Oc3ccnc(Cl)c3)c(F)c2)cc2n1C[C@]13CO[C@H](CN21)C3` [Example 6, (3S,11aR)-7-((4-((2-chloropyridin-4-yl)oxy)-3,5-difluorobenzyl)oxy)-3,4-dihydro-1H,9H,11H-3,11a-methanopyrimido[6′,1′:2,3] imidazo[5,1-c][1,4]oxazin-9-one] is 8.31.

For `O=c1nc(OCc2cc(F)c(Oc3cnc(C(F)(F)F)nc3)c(F)c2)cc2n1C[C@]13CO[C@H](CN21)C3` [Example 7, (3S,11aR)-7-((3,5-difluoro-4-((2-(trifluoromethyl)pyrimidin-5-yl)oxy)benzyl)oxy)-3,4-dihydro-1H,9H,11H-3,11a-methanopyrimido[6′,1′:2,3] imidazo[5,1-c][1,4]oxazin-9-one], the negative-log IC50 (pIC50) was 8.60. The same measure, in the same setting: in the case of `O=c1nc(OCc2cc(F)c(Oc3cncc(C(F)(F)F)c3)c(F)c2)cc2n1C[C@]13CO[C@H](CN21)C3` [Example 8] it was 8.31; in that of `O=c1nc(OCc2cc(F)c(Oc3ccc(C(F)(F)F)nc3)c(F)c2)cc2n1C[C@]13CO[C@H](CN21)C3` [Example 9], 8.19.

Consider `Cc1cc(Oc2c(F)cc(COc3cc4n(c(=O)n3)C[C@]35CO[C@H](CN43)C5)cc2F)ccn1` [Example 10, (3S,11aR)-7-((3,5-difluoro-4-((2-methyl-pyridin-4-yl)oxy)benzyl)oxy)-3,4-dihydro-1H,9H,11H-3,11a-methanopyrimido[6′,1′:2,3] imidazo[5,1-c][1,4]oxazin-9-one], for which the pIC50 was 8.17. Still for that read-out and setting: the figure for `Cn1cc(Oc2c(F)cc(COc3cc4n(c(=O)n3)C[C@]35CO[C@H](CN43)C5)cc2F)cn1` [Example 11, (3S,11aR)-7-((3,5-difluoro-4-((1-methyl-1H-pyrazol-4-yl)oxy)benzyl)oxy)-3,4-dihydro-1H,9H,11H-3,11a-methanopyrimido[6′,1′:2,3] imidazo[5,1-c][1,4]oxazin-9-one] is 7.97; for `N#Cc1cc(Oc2ccc(COc3cc4n(c(=O)n3)C[C@]35CO[C@H](CN43)C5)cc2F)cc(C(F)(F)F)c1` [Example 12] it is 8.37; for `O=c1nc(OCc2ccc(Oc3ccc(Cl)c(C(F)(F)F)c3)c(F)c2)cc2n1C[C@]13CO[C@H](CN21)C3` [Example 14, (3S,11aR)-7-((4-(4-chloro-3-(trifluoromethyl)phenoxy)-3-fluorobenzyl)oxy)-3,4-dihydro-1H,9H,11H-3,11a-methanopyrimido[6′,1′:2,3] imidazo[5,1-c][1,4]oxazin-9-one] it is 8.34.

As to `O=c1nc(OCc2ccc(Oc3ccnc(C(F)(F)F)c3)cc2)cc2n1C[C@]13CO[C@H](CN21)C3` [Example 15, (3S,11aR)-7-((4-((2-(trifluoromethyl)pyridin-4-yl)oxy)benzyl)oxy)-3,4-dihydro-1H,9H,11H-3,11a-methanopyrimido[6′,1′:2,3] imidazo[5,1-c][1,4]oxazin-9-one], the pIC50 was 8.18. The same measure, in the same setting: the figure for `O=c1nc(OCc2ccc(Oc3ccc(Cl)c(C(F)(F)F)c3)cc2)cc2n1C[C@]13CO[C@H](CN21)C3` [Example 16, (3S,11aR)-7-((4-(4-chloro-3-(trifluoromethyl)phenoxy)benzyl)oxy)-3,4-dihydro-1H,9H,11H-3,11a-methanopyrimido[6′,1′:2,3] imidazo[5,1-c][1,4]oxazin-9-one] is 8.28. Turning to `O=c1nc(OCc2ccc(Oc3ccc(F)c(C(F)(F)F)c3)nc2)cc2n1C[C@]13CO[C@H](CN21)C3` [Example 17, (3S,11aR)-7-((6-(4-fluoro-3-(trifluoromethyl)phenoxy)pyridin-3-yl)methoxy)-3,4-dihydro-1H,9H,11H-3,11a-methanopyrimido[6′,1′:2,3] imidazo[5,1-c][1,4]oxazin-9-one], the pIC50 was 7.49. As for `N#Cc1cc(COc2cc3n(c(=O)n2)C[C@]24CO[C@H](CN32)C4)ccc1Oc1ccc(Cl)c(C(F)(F)F)c1` [Example 18, 5-((((3S,11aR)-9-oxo-3,4-dihydro-1H,9H,11H-3,11a-methanopyrimido[6′,1′:2,3]imidazo[5,1-c][1,4]oxazin-7-yl)oxy)methyl)-2-(4-chloro-3-(trifluoromethyl)phenoxy) benzonitrile], the pIC50 is 8.46.

Regarding `N#Cc1cc(COc2cc3n(c(=O)n2)C[C@]24CO[C@H](CN32)C4)ccc1Oc1cccc(C(F)(F)F)c1` [Example 19, 5-((((3S,11aR)-9-oxo-3,4-dihydro-1H,9H,11H-3,11a-methanopyrimido[6′,1′:2,3]imidazo[5,1-c][1,4]oxazin-7-yl)oxy)methyl)-2-(3-(trifluoromethyl)phenoxy) benzonitrile], the pIC50 was 8.41. Still for that read-out and setting: in the case of `N#Cc1cc(COc2cc3n(c(=O)n2)C[C@]24CO[C@H](CN32)C4)ccc1Oc1ccc(Cl)c(F)c1` [Example 20] it was 8.17; in that of `N#Cc1cc(COc2cc3n(c(=O)n2)C[C@]24CO[C@H](CN32)C4)ccc1Oc1ccc(C(F)(F)F)cc1` [Example 21], 8.19; in that of `N#Cc1cc(COc2cc3n(c(=O)n2)C[C@]24CO[C@H](CN32)C4)ccc1Oc1ccnc(C(F)(F)F)c1` [Example 22, 5-((((3S,11aR)-9-oxo-3,4-dihydro-1H,9H,11H-3,11a-methanopyrimido[6′,1′:2,3]imidazo[5,1-c][1,4]oxazin-7-yl)oxy)methyl)-2-((2-(trifluoromethyl)pyridin-4-yl)oxy)benzonitrile], 8.52. Still for that read-out and setting: in the case of `O=c1nc(OCCc2ccc(Oc3ccc(Cl)c(C(F)(F)F)c3)cc2)cc2n1C[C@]13CO[C@H](CN21)C3` [Example 23, (3S,11aR)-7-(4-(4-chloro-3-(trifluoromethyl)phenoxy)phenethoxy)-3,4-dihydro-1H,9H,11H-3,11a-methanopyrimido[6′,1′:2,3] imidazo[5,1-c][1,4]oxazin-9-one] it was 8.30; in that of `O=c1nc(OCc2cc(F)c(F)c(F)c2)cc2n1C[C@]13CO[C@H](CN21)C3` [Example 24, (3S,11aR)-7-((3,4,5-trifluorobenzyl)oxy)-3,4-dihydro-1H,9H,11H-3,11a-methanopyrimido[6′,1′:2,3] imidazo[5,1-c][1,4]oxazin-9-one], 7.88; in that of `O=c1nc(OCc2ccc(F)c(F)c2)cc2n1C[C@]13CO[C@H](CN21)C3` [Example 25, (3S,11aR)-7-((3,4-trifluorobenzyl)oxy)-3,4-dihydro-1H,9H,11H-3,11a-methanopyrimido[6′,1′:2,3] imidazo[5,1-c][1,4]oxazin-9-one], 7.98.
